# Source: the Kinase Knowledgebase extract (Sharma et al. 2016)
# Molecular target: PIK3CG (human) (UniProt P48736)
# Experiment: Assessment of PIK3CG Kinase Activity
# PIK3CG (human), sequence (P48736 whole entry, looked up): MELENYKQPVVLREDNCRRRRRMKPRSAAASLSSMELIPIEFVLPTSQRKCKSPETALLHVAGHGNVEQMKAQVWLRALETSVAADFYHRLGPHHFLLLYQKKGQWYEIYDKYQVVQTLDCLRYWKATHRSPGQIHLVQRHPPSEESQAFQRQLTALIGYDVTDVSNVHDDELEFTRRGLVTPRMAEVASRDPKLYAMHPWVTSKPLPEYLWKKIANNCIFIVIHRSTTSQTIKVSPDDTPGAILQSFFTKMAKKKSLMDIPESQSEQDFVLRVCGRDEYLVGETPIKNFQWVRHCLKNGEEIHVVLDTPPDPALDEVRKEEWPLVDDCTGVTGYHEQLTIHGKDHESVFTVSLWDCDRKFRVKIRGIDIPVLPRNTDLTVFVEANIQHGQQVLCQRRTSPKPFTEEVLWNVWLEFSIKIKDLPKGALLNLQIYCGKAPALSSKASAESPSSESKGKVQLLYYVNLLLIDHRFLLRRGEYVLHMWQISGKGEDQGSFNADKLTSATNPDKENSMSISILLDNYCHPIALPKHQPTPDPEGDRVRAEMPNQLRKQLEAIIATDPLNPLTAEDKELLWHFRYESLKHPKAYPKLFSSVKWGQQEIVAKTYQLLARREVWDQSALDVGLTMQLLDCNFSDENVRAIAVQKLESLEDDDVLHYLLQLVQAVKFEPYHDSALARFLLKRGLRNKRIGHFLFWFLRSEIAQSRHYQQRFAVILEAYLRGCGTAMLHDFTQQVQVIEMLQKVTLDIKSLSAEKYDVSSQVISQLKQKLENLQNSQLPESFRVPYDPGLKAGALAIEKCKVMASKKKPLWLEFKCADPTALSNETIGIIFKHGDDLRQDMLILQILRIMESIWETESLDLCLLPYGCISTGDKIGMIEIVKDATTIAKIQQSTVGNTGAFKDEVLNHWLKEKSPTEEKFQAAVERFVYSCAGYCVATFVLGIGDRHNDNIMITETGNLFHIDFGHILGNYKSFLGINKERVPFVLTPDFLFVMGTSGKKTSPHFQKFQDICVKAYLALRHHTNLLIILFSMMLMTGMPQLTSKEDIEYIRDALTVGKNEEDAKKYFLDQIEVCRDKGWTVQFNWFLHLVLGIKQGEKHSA
row,Structure (SMILES),IC50 [µM]
1,O=C(NCC1CCCCN1)Nc1nc2c(s1)-c1c(c(-c3cncnc3)nn1-c1ccccc1Cl)CC2 (centres undefined),< 0.8
2,CCc1csc(CCNC(=O)Nc2nc3c(s2)-c2c(c(-c4ccccc4)nn2-c2cccc(Cl)c2)CC3)n1,< 0.8
3,C[C@@H](C(=O)N1CCC[C@@H]1CNC(=O)Nc1nc2c(s1)-c1c(c(-c3cncnc3)nn1-c1ccccc1Cl)CC2)N(C)C(=O)OC(C)(C)C,< 0.8
4,CN1CCC(n2nc(-c3cccnc3)c3c2-c2sc(NC(=O)NCCc4nc(C5CC5)no4)nc2CC3)CC1,< 0.8
5,NC(=O)c1cccc(CNC(=O)Nc2nc3c(s2)-c2c(c(-c4cccnc4)nn2C2CCN(C4CCCC4)CC2)CC3)c1,< 0.8
6,O=C(NCCc1ccc2c(c1)OCCO2)Nc1nc2c(s1)-c1c(c(-c3cncnc3)nn1-c1ccccc1Cl)CC2,< 0.8
7,O=C(NC[C@H]1CCCN1C(=O)Cc1ccccc1)Nc1nc2c(s1)-c1c(c(-c3cncnc3)nn1-c1ccccc1Cl)CC2,< 0.8
8,CS(=O)(=O)Nc1ccc(NC(=O)Nc2nc3c(s2)-c2c(c(-c4ccccc4)nn2-c2ccccc2Cl)CC3)cc1,< 0.8
9,CC(C)(C)OC(=O)N1CCC[C@@H]1CNC(=O)Nc1nc2c(s1)-c1c(c(-c3ccccc3)nn1-c1ccccc1Cl)CC2,< 0.8
10,O=C(NCCCC(=O)N1CCOCC1)Nc1nc2c(s1)-c1c(c(-c3ccccc3)nn1-c1ccccc1Cl)CC2,< 0.8
11,CC(C)(C)OC(=O)CCNC(=O)Nc1nc2c(s1)-c1c(c(-c3ccccc3)nn1-c1cccc(Cl)c1)CC2,< 0.8
12,CN(C)C(=O)CCNC(=O)Nc1nc2c(s1)-c1c(c(-c3cccnc3)nn1C1CCN(C3CCCC3)CC1)CC2,< 0.8
13,CCN(CC)C(=O)N1CC[C@H](CNC(=O)Nc2nc3c(s2)-c2c(c(-c4cncnc4)nn2-c2ccccc2Cl)CC3)C1,< 0.8
14,O=C(NCc1ccc2cc[nH]c2c1)Nc1nc2c(s1)-c1c(c(-c3cncnc3)nn1-c1ccccc1Cl)CC2,< 0.8
15,O=C(NCCCn1ccnc1)Nc1nc2c(s1)-c1c(c(-c3cncnc3)nn1-c1ccccc1F)CC2,< 0.8
16,CCc1cccc(CNC(=O)Nc2nc3c(s2)-c2c(c(-c4cccnc4)nn2C2CCN(C)CC2)CC3)c1,< 0.8
17,CC(C)(C)OC(=O)N1CCC[C@@H]1CNC(=O)Nc1nc2c(s1)-c1c(c(-c3cncnc3)nn1-c1ccccc1F)CC2,< 0.8
18,CC(=O)N(C)c1cccc(CNC(=O)Nc2nc3c(s2)-c2c(c(-c4cccnc4)nn2C2CCN(C)CC2)CC3)c1,< 0.8
19,O=C(NCc1cccnc1N1CCCC1)Nc1nc2c(s1)-c1c(c(-c3cncnc3)nn1-c1ccccc1Cl)CC2,< 0.8
20,O=C(NC[C@H]1CCCN1C(=O)Oc1ccccc1)Nc1nc2c(s1)-c1c(c(-c3cncnc3)nn1-c1ccccc1Cl)CC2,< 0.8
21,O=C(NCc1cccc(CN2CCOCC2)n1)Nc1nc2c(s1)-c1c(c(-c3cncnc3)nn1-c1ccccc1Cl)CC2,< 0.8
22,O=C(NC[C@H]1CCN(C(=O)N2CCCC2)C1)Nc1nc2c(s1)-c1c(c(-c3ccccc3)nn1-c1cccc(Cl)c1)CC2,< 0.8
23,O=C(NCc1ccc2c(c1)OCO2)Nc1nc2c(s1)-c1c(c(-c3cncnc3)nn1-c1ccccc1Cl)CC2,< 0.8
24,CC(C)c1noc(CCNC(=O)Nc2nc3c(s2)-c2c(c(-c4ccccc4)nn2-c2cccc(Cl)c2)CC3)n1,< 0.8
25,CN(C)C(=O)CNC(=O)Nc1nc2c(s1)-c1c(c(-c3ccccc3)nn1-c1ccccc1Cl)CC2,< 0.8

row,Structure (SMILES),IC50 [µM]
1,CC(C)c1nnc(CCNC(=O)Nc2nc3c(s2)-c2c(c(-c4ccccc4)nn2-c2cccc(Cl)c2)CC3)o1,< 0.8
2,O=C(Nc1nc2c(s1)-c1c(c(-c3cccnc3)nn1-c1ccccc1Cl)CC2)N1CCCC(c2nc3ccccc3[nH]2)C1 (centres undefined),< 0.8
3,CN1CCN(C(=O)N2CCC[C@@H]2CNC(=O)Nc2nc3c(s2)-c2c(c(-c4cncnc4)nn2-c2ccccc2Cl)CC3)CC1,< 0.8
4,CC(C)(C)OC(=O)N1CCCC(NC(=O)Nc2nc3c(s2)-c2c(c(-c4cncnc4)nn2-c2ccccc2Cl)CC3)C1 (centres undefined),< 0.8
5,CN1CCN(CCCNC(=O)Nc2nc3c(s2)-c2c(c(-c4cncnc4)nn2-c2ccccc2F)CC3)CC1,< 0.8
6,CN(C)c1cccc(CNC(=O)Nc2nc3c(s2)-c2c(c(C4CC4)nn2-c2ccccc2Cl)CC3)c1,< 0.8
7,Cn1cc(CNC(=O)Nc2nc3c(s2)-c2c(c(-c4cccnc4)nn2C2CCN(C4CCCC4)CC2)CC3)cn1,< 0.8
8,CC(=O)N(C)c1cccc(CNC(=O)Nc2nc3c(s2)-c2c(c(-c4cncnc4)nn2-c2ccccc2Cl)CC3)c1,< 0.8
9,CC(C)(C)OC(=O)N1CCC[C@H]1CNC(=O)Nc1nc2c(s1)-c1c(c(-c3cncnc3)nn1-c1ccccc1F)CC2,< 0.8
10,CC(=O)Nc1cccc(CNC(=O)Nc2nc3c(s2)-c2c(c(-c4cccnc4)nn2C2CCN(C4CCCC4)CC2)CC3)c1,< 0.8
11,CCc1cnc(CCNC(=O)Nc2nc3c(s2)-c2c(c(-c4ccccc4)nn2-c2ccccc2Cl)CC3)o1,< 0.8
12,C[C@H](NC(=O)Nc1nc2c(s1)-c1c(c(-c3ccccc3)nn1-c1ccccc1Cl)CC2)C(=O)N1CCN(C)CC1,< 0.8
13,CN1CCC(n2nc(-c3cccnc3)c3c2-c2sc(NC(=O)NCCC(=O)N(C)C)nc2CC3)CC1,< 0.8
14,O=C(NCCN1CCOCC1)Nc1nc2c(s1)-c1c(c(-c3cncnc3)nn1-c1ccccc1F)CC2,< 0.8
15,CN(C)CC(=O)N1CC[C@H](CNC(=O)Nc2nc3c(s2)-c2c(c(-c4cncnc4)nn2-c2ccccc2Cl)CC3)C1,< 0.8
16,CN(C)CCNC(=O)Nc1nc2c(s1)-c1c(c(-c3cncnc3)nn1-c1ccccc1F)CC2,< 0.8
17,O=C(Nc1cccc(N2CCNCC2)c1)Nc1nc2c(s1)-c1c(c(-c3cncnc3)nn1-c1ccccc1F)CC2,< 0.8
18,CCCn1cnc(CCNC(=O)Nc2nc3c(s2)-c2c(c(-c4cncnc4)nn2-c2ccccc2Cl)CC3)c1,< 0.8
19,O=C(NCCc1nc(C2CC2)no1)Nc1nc2c(s1)-c1c(c(Nc3ccccn3)nn1-c1ccccc1)CC2,< 0.8
20,CCn1cnc(CCNC(=O)Nc2nc3c(s2)-c2c(c(-c4cncnc4)nn2-c2ccccc2Cl)CC3)c1,< 0.8
21,NC(=O)Nc1cccc(CNC(=O)Nc2nc3c(s2)-c2c(c(C4CC4)nn2-c2ccccc2Cl)CC3)c1,< 0.8
22,CC(C)c1noc(CCNC(=O)Nc2nc3c(s2)-c2c(c(C4CC4)nn2-c2ccccc2Cl)CC3)n1,< 0.8
23,CCc1csc(CCNC(=O)Nc2nc3c(s2)-c2c(c(C4CC4)nn2-c2ccccc2Cl)CC3)n1,< 0.8
24,CC(C)(C)CC(=O)N1CCC[C@@H]1CNC(=O)Nc1nc2c(s1)-c1c(c(-c3cncnc3)nn1-c1ccccc1Cl)CC2,< 0.8
25,CC(C)(C)OC(=O)N1CCC[C@@H]1CNC(=O)Nc1nc2c(s1)-c1c(c(-c3ccccc3)nn1-c1ccccc1F)CC2,< 0.8

# Other lines, results leading:
row,IC50 [µM],Structure (SMILES)
1,< 0.8,CC(C)c1cnc(CCNC(=O)Nc2nc3c(s2)-c2c(c(-c4cccnc4)nn2-c2ccccc2Cl)CC3)o1
2,< 0.8,O=C(NCCc1cccc(N2CCNC2=O)c1)Nc1nc2c(s1)-c1c(c(-c3cccnc3)nn1-c1ccccc1Cl)CC2
3,< 0.8,NC(=O)Nc1nc2c(s1)-c1c(c(-c3cccnc3)nn1-c1ccc(S(N)(=O)=O)cc1Cl)CC2
4,< 0.8,COc1ccccc1C1CCN(C(=O)Nc2nc3c(s2)-c2c(c(-c4cccnc4)nn2-c2ccccc2Cl)CC3)C1 (centres undefined)
5,< 0.8,O=C(NCCc1nc(C2CC2)no1)Nc1nc2c(s1)-c1c(c(-c3cccnc3)nn1-c1ccccc1Cl)CC2
6,< 0.8,O=C(NCCc1ccncc1)Nc1nc2c(s1)-c1c(c(-c3cccnc3)nn1-c1ccccc1Cl)CC2
7,< 0.8,CN(C)CCNC(=O)Nc1nc2c(s1)-c1c(c(-c3cncnc3)nn1-c1ccccc1Cl)CC2
8,< 0.8,CN(Cc1cccc(CNC(=O)Nc2nc3c(s2)-c2c(c(-c4cccnc4)nn2-c2ccccc2Cl)CC3)c1)C(=O)OC(C)(C)C
9,< 0.8,CC(C)(C)OC(=O)N1CCC(CNC(=O)Nc2nc3c(s2)-c2c(c(-c4cccnc4)nn2-c2ccccc2Cl)CC3)CC1
10,< 0.8,NC(=O)c1ccc(CNC(=O)Nc2nc3c(s2)-c2c(c(-c4cncnc4)nn2-c2ccccc2Cl)CC3)cc1
11,< 0.8,CC(=O)NCC1CCCN(C(=O)Nc2nc3c(s2)-c2c(c(-c4cccnc4)nn2-c2ccccc2Cl)CC3)C1 (centres undefined)
12,< 0.8,O=C(NCc1ccccc1N1CCCCC1)Nc1nc2c(s1)-c1c(c(-c3cccnc3)nn1-c1ccccc1Cl)CC2
13,< 0.8,O=C(NCCNS(=O)(=O)C1CC1)Nc1nc2c(s1)-c1c(c(-c3ccccc3)nn1-c1ccccc1Cl)CC2
14,< 0.8,CS(=O)(=O)Nc1cccc(NC(=O)Nc2nc3c(s2)-c2c(c(-c4ccccc4)nn2-c2ccccc2Cl)CC3)c1
15,< 0.8,NC(=O)N1Cc2ccc(CNC(=O)Nc3nc4c(s3)-c3c(c(-c5cccnc5)nn3-c3ccccc3Cl)CC4)cc2C1
16,< 0.8,CC(C)(C)OC(=O)N1CCCC(CNC(=O)Nc2nc3c(s2)-c2c(c(-c4cccnc4)nn2-c2ccccc2Cl)CC3)C1 (centres undefined)
17,< 0.8,NC(=O)c1cccc(CNC(=O)Nc2nc3c(s2)-c2c(c(-c4cncnc4)nn2-c2ccccc2Cl)CC3)c1
18,< 0.8,Nc1nnc(CNC(=O)Nc2nc3c(s2)-c2c(c(-c4cncnc4)nn2-c2ccccc2Cl)CC3)[nH]1
19,< 0.8,NS(=O)(=O)c1ccc(CNC(=O)Nc2nc3c(s2)-c2c(c(-c4cncnc4)nn2-c2ccccc2Cl)CC3)cc1
20,< 0.8,CCN1CCC[C@H]1CNC(=O)Nc1nc2c(s1)-c1c(c(-c3cccnc3)nn1-c1ccccc1Cl)CC2
21,< 0.8,CNC(=O)Nc1nc2c(s1)-c1c(c(-c3cccnc3)nn1-c1ccc(S(N)(=O)=O)cc1Cl)CC2
22,< 0.8,CC(C)c1nnc(CCNC(=O)Nc2nc3c(s2)-c2c(c(-c4cccnc4)nn2-c2ccccc2Cl)CC3)o1
23,< 0.8,CC(C)S(=O)(=O)NCCNC(=O)Nc1nc2c(s1)-c1c(c(-c3ccccc3)nn1-c1ccccc1Cl)CC2
24,< 0.8,CC(C)(C)OC(=O)NCc1ccccc1NC(=O)Nc1nc2c(s1)-c1c(c(-c3cccnc3)nn1-c1ccccc1Cl)CC2
25,< 0.8,O=C(Nc1nc2c(s1)-c1c(c(-c3cccnc3)nn1-c1ccccc1Cl)CC2)N1CCC(N2CCNC2=O)CC1
26,< 0.8,CC(C)(C)OC(=O)CCNC(=O)Nc1nc2c(s1)-c1c(c(-c3cccnc3)nn1-c1ccccc1Cl)CC2
27,< 0.8,CNC(=O)c1cccc(CNC(=O)Nc2nc3c(s2)-c2c(c(-c4cccnc4)nn2-c2ccccc2Cl)CC3)c1
28,< 0.8,CNC(=O)Nc1nc2c(s1)-c1c(c(-c3cncnc3)nn1-c1ccccc1F)CC2
29,< 0.8,CC(C)(CNc1ccc(C(C)(C)C)cc1)NC(=O)Nc1nc2c(s1)-c1c(c(-c3cccnc3)nn1-c1ccccc1Cl)CC2
